Experimental data from patent US11035008B2, “Biomarkers for cancer” (BERGENBIO ASA, priority 2015, dated 2021).

Legend:
pPLCγ1 = pPLCγ1 in CD33-positive cells, MOLM13 systemic xenograft model, flow cytometry; assay type: in vivo, mice; conditions: 50 mg/kg for 4 days
Experimental: (§1) Material from an in vivo MOLM13 systemic model was also evaluated by flow cytometry. Expression of the previously evaluated biomarkers was examined in cells isolated from bone marrows and spleens of animals with systemic AML disease (MOLM13, inoculated for 7 days prior to treatment) treated with BGB324 at 50 mg/kg for 4 days. The spleens analysed were from the same study that was analysed by microarray, as mentioned above. The bone marrows were from an identical study that was done at a later time point to get more material for flow analyses.
(§2) Cells isolated from spleens and bone marrows were assessed for phosphorylation of Erk, PLCγ1 and Akt, and expression of PHGDH and SLFN11. The samples were also co-stained with CD33, and biomarker expression was only evaluated in CD33-positive cells.

PHGDH = PHGDH in CD33-positive cells, MOLM13 systemic xenograft model, flow cytometry; assay type: in vivo, mice; conditions: 50 mg/kg for 4 days
Experimental: as §1, §2

SLFN11 = SLFN11 in CD33-positive cells, MOLM13 systemic xenograft model, flow cytometry; assay type: in vivo, mice; conditions: bone marrows, 50 mg/kg for 4 days
Experimental: as §1, §2

totErk = assay: Total Erk in AML cell panel, long-term treatment, flow cytometry; assay type: cell-based, human
Experimental: Staining of Cells for Flow Cytometry, General Protocol: • Live cells were centrifuged at 300 G for 5 minutes, washed once with PBS and centrifuged again. Cells were then fixed in 4% PFA in PBS for 10 minutes at 37° C., and resuspended in PBS. Unless processed immediately, samples were at this point stored in PBS at 4° C. (up to three weeks) or at −80° C. (for long-term storage). If intracellular epitopes were stained, cells were permebealized in 90% MeOH for 30 minutes on ice. Unless processed immediately, samples were also be stored in 90% MeOH at −20° C. for up to two months. • Further staining procedure (permebealized or non-permebealized cells): • Cells were washed 1× in PBS and blocked in blocking buffer; either PBS+0.5% BSA or PBS+1:1000 Octagam (5 mg/ml) for 15 minutes at room temperature. Thereafter, cells were incubated with primary AB at the indicated dilutions in incubation buffer (IB, PBS+0.5% BSA) for 1 hour at room temperature. Cells were then washed 3× with IB and incubated with secondary AB (conjugated to a fluorescent flurophore) at 1:1000 dilution in IB for 30 minutes at room temperature. Finally, cells were washed 3× in IB and resuspended in PBS. Cells were analyzed immediately, or stored for up to 24 hours at 4° C. before analysis. • Analysis of cells was done on a BD LSR Fortessa or a BD C6 Accuri flow cytometer, and further processing was done using FlowJo v.7.6. • All incubation steps (but not storage) were done on a spinning wheel or gentle shaker.
The diversity of AML cells and their responses was investigated using a panel of AML cell lines and assessing their responses after BGB324-treatment.
Long-term treatment was done in complete medium, without starvation. The responders were treated with 0.05, 0.1 or 0.3 μM BGB324, whereas the non-responders were treated with only a single dose of 2.5 μM BGB324. The cells were fixed after 24, 48 or 72 hours, and the samples were stored in 90% MeOH at −20° C. until all samples were harvested, and stained for flow at the same time.

Structure (SMILES): Nc1nc(Nc2ccc3c(c2)CC[C@@H](N2CCCC2)CC3)nn1-c1cc2c(nn1)-c1ccccc1CCC2 [BGB324, 1-(6,7-dihydro-5H-benzo[6,7]cyclohepta[1,2-c]pyridazin-3-yl)-N3-((7-(S)-pyrrolidin-1-yl)-6,7,8,9-tetrahydro-5H-benzo[7]annulene-2-yl)-1H-1,2,4-triazole-3,5-diamine]
- pPLCγ1 (pPLCγ1; bone marrows): significant reduction
- pPLCγ1 (pPLCγ1; spleens): significant reduction
- PHGDH expression (PHGDH; bone marrows): significant reduction
- PHGDH expression (PHGDH; spleens): significant reduction
- SLFN11 expression (SLFN11): significant reduction
- Erk expression (totErk; Kasumi, 2.5 μM, significant at 48 and 72 hours): reduction of Erk expression
- Erk expression (totErk; MOLM13, 0.3 μM, 48 and 72 hours): normalized to control-levels
- Erk expression (totErk; MOLM13, 0.3 μM, 24 hours): slight, but significant, reduction of Erk expression
- Erk expression (totErk; Mv4-11, 0.3 μM, 24, 48 and 72 hours): gradual reduction of Erk expression
- Erk expression (totErk; Mv4-11, 0.3 μM, 48 and 72 hours): significantly lower than control cells
- Erk expression (totErk; OCI-AML5, 2.5 μM, significant at 24 and 48 hours): reduction of Erk expression
